Assay results published in PubChem BioAssay AID330 (DTP/NCI, 2004).
Values joined by “and” are separate entries in the source; they are usually repeats but may differ in a detail not shown here. Equal values may be shown once. Inconclusive results and toxic doses are left out. The calls were made as follows: active = survival T/C of 150% or more; inactive = T/C below 125% in these data.

Test system: P388 leukemia ip, CD2F1 mice, survival T/C
Test: NCI In Vivo Anticancer Drug Screen. Data for tumor model P388 Leukemia (intraperitoneal) in CD2F1 (CDF1) mice
Conditions: endpoint: median survival time, higher = longer survival
In short: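 Mice carrying the transplanted tumor received test compound or vehicle. Survival was recorded in each group, and the value is the treated-group measurement divided by that of the vehicle-treated control group.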

[1] = dose: 60.0 mg/kg/injection, schedule: Q01DX005 (ip), vehicle: saline with Tween-80
[2] = dose: 120.0 mg/kg/injection, schedule: Q01DX005 (ip), vehicle: saline with Tween-80
[3] = dose: 50.0 mg/kg/injection, schedule: Q01DX009 (ip), vehicle: saline with Tween-80
[4] = dose: 100.0 mg/kg/injection, schedule: Q01DX009 (ip), vehicle: saline with Tween-80
[5] = dose: 200.0 mg/kg/injection, schedule: Q01DX009 (ip), vehicle: saline with Tween-80
[6] = dose: 100.0 mg/kg/injection, schedule: Q01DX001 (ip), vehicle: Klucel (hydroxypropylcellulose) (HPC)
[7] = dose: 200.0 mg/kg/injection, schedule: Q01DX001 (ip), vehicle: Klucel (hydroxypropylcellulose) (HPC)
[8] = dose: 400.0 mg/kg/injection, schedule: Q01DX001 (ip), vehicle: Klucel (hydroxypropylcellulose) (HPC)
[9] = dose: 25.0 mg/kg/injection, schedule: Q01DX005 (ip), vehicle: Klucel (hydroxypropylcellulose) (HPC)
[10] = dose: 50.0 mg/kg/injection, schedule: Q01DX005 (ip), vehicle: Klucel (hydroxypropylcellulose) (HPC)
[11] = dose: 100.0 mg/kg/injection, schedule: Q01DX005 (ip), vehicle: Klucel (hydroxypropylcellulose) (HPC)
[12] = dose: 200.0 mg/kg/injection, schedule: Q01DX005 (ip), vehicle: Klucel (hydroxypropylcellulose) (HPC)
[13] = dose: 100.0 mg/kg/injection, schedule: Q04DX002 (ip), vehicle: saline with Tween-80
[14] = dose: 200.0 mg/kg/injection, schedule: Q04DX002 (ip), vehicle: saline with Tween-80

Measured: T/C

COc1ccc(N2C(=O)C(C)SC23C(=O)Nc2ccc(C)cc23)cc1 (stereo not given)
inactive: [1] 109 % of control | [2] 102 % of control | dose: 240.0 mg/kg/injection, schedule: Q01DX005 (ip), vehicle: saline with Tween-80 119 % of control

CCN(CC)C(=O)c1c(Cl)c(Cl)c(Cl)c(Cl)c1C(=O)O
inactive: [3] 112 % of control | [4] 96 % of control | [5] 96 % of control | dose: 400.0 mg/kg/injection, schedule: Q01DX009 (ip), vehicle: saline with Tween-80 102 % of control

CCOc1cccs1
inactive: [1] 102 % of control | [2] 100 % of control

CN(C)c1ncnc2c1ccn2COCCO
inactive: dose: 50.0 mg/kg/injection, schedule: Q01DX005 (ip), vehicle: distilled water + alcohol 100 % of control | dose: 100.0 mg/kg/injection, schedule: Q01DX005 (ip), vehicle: distilled water + alcohol 98 % of control | dose: 200.0 mg/kg/injection, schedule: Q01DX005 (ip), vehicle: distilled water + alcohol 107 % of control

COc1cc(C(c2cc3c(cc2OC(C)=O)OCO3)C(C(C)=O)C(C)=O)cc(OC)c1OC(C)=O (stereo not given)
inactive: [1] 90 % of control | [2] 96 % of control

COSc1ccccc1
inactive: [6] 96 % of control | [7] 90 % of control | [8] 104 % of control

CC(CN(C)C)C(=O)/C=C/c1ccc(Cl)c(Cl)c1 (stereo not given)
inactive: dose: 15.0 mg/kg/injection, schedule: Q01DX005 (ip), vehicle: saline with Tween-80 122 % of control | dose: 30.0 mg/kg/injection, schedule: Q01DX005 (ip), vehicle: saline with Tween-80 116 % of control | [1] 111 % of control and 117 % of control

COc1ccc(S(=O)(=O)N/N=C/c2cnc[nH]2)cc1
inactive: dose: 12.5 mg/kg/injection, schedule: Q01DX005 (ip), vehicle: Klucel (hydroxypropylcellulose) (HPC) 100 % of control | [9] 97 % of control | [10] 97 % of control | [11] 88 % of control | [12] 90 % of control and 94 % of control | dose: 400.0 mg/kg/injection, schedule: Q01DX005 (ip), vehicle: Klucel (hydroxypropylcellulose) (HPC) 117 % of control

CCC(O)C(O)(c1ccccc1)c1nc2ccccc2s1 (stereo not given)
inactive: [10] 102 % of control | [11] 102 % of control | [12] 99 % of control

CNc1c(C(=O)Nc2ccccc2)c(=O)n(C)c(=O)n1C
inactive: [6] 94 % of control | [7] 92 % of control | [8] 93 % of control

CC(C)(C(=S)[S-])[P+](c1ccccc1)(c1ccccc1)c1ccccc1
inactive: dose: 60.0 mg/kg/injection, schedule: Q01DX005 (ip), vehicle: Klucel (hydroxypropylcellulose) (HPC) 96 % of control | dose: 120.0 mg/kg/injection, schedule: Q01DX005 (ip), vehicle: Klucel (hydroxypropylcellulose) (HPC) 92 % of control | dose: 240.0 mg/kg/injection, schedule: Q01DX005 (ip), vehicle: Klucel (hydroxypropylcellulose) (HPC) 88 % of control

[NH-]CC([NH-])=O.[NH-]CC([NH-])=O.[Ni]
inactive: dose: 1.0 mg/kg/injection, schedule: Q01DX009 (ip), vehicle: saline 100 % of control | dose: 2.0 mg/kg/injection, schedule: Q01DX009 (ip), vehicle: saline 95 % of control | dose: 4.0 mg/kg/injection, schedule: Q01DX009 (ip), vehicle: saline 100 % of control | dose: 8.0 mg/kg/injection, schedule: Q01DX009 (ip), vehicle: saline 100 % of control

CCCCn1c(C)nc2c(N)cc(C(F)(F)F)cc21
inactive: dose: 3.12 mg/kg/injection, schedule: Q01DX009 (ip), vehicle: Klucel (hydroxypropylcellulose) (HPC) 100 % of control and 92 % of control | dose: 6.25 mg/kg/injection, schedule: Q01DX009 (ip), vehicle: Klucel (hydroxypropylcellulose) (HPC) 105 % of control and 87 % of control | dose: 12.5 mg/kg/injection, schedule: Q01DX009 (ip), vehicle: Klucel (hydroxypropylcellulose) (HPC) 121 % of control and 97 % of control | dose: 25.0 mg/kg/injection, schedule: Q01DX001 (ip), vehicle: Klucel (hydroxypropylcellulose) (HPC) 111 % of control | dose: 25.0 mg/kg/injection, schedule: Q01DX009 (ip), vehicle: Klucel (hydroxypropylcellulose) (HPC) 107 % of control and 89 % of control and 93 % of control | dose: 50.0 mg/kg/injection, schedule: Q01DX001 (ip), vehicle: Klucel (hydroxypropylcellulose) (HPC) 115 % of control | dose: 50.0 mg/kg/injection, schedule: Q01DX009 (ip), vehicle: Klucel (hydroxypropylcellulose) (HPC) 101 % of control | [6] 115 % of control | dose: 100.0 mg/kg/injection, schedule: Q01DX009 (ip), vehicle: Klucel (hydroxypropylcellulose) (HPC) 105 % of control | [7] 114 % of control | [8] 118 % of control

CCOC(=O)C(N)C[S][Sn]([CH3])([CH3])[Cl] (stereo not given)
inactive: [3] 91 % of control

Nc1ccc2cc(S(=O)(=O)O)c(N=Nc3ccc(-c4ccc(N=Nc5ccc(O)c(C(=O)O)c5)cc4)cc3)c(O)c2c1
inactive: [10] 92 % of control | [11] 97 % of control | [12] 95 % of control

O=C1c2ccccc2C(=O)C1(Br)c1ccc(Cl)cc1
inactive: [13] 96 % of control | [14] 101 % of control | dose: 400.0 mg/kg/injection, schedule: Q04DX002 (ip), vehicle: saline with Tween-80 99 % of control

O=NN(c1cccc(C(F)(F)F)c1)c1ccccn1
inactive: dose: 25.0 mg/kg/injection, schedule: Q01DX009 (ip), vehicle: other 100 % of control | dose: 50.0 mg/kg/injection, schedule: Q01DX009 (ip), vehicle: other 108 % of control | dose: 100.0 mg/kg/injection, schedule: Q01DX009 (ip), vehicle: other 106 % of control | dose: 200.0 mg/kg/injection, schedule: Q01DX009 (ip), vehicle: other 104 % of control | dose: 400.0 mg/kg/injection, schedule: Q01DX009 (ip), vehicle: other 108 % of control

COc1ccc(OC)c2c(=O)c(C)c(C(=O)O)[nH]c12
inactive: dose: 100.0 mg/kg/injection, schedule: Q01DX001 (ip), vehicle: alkali diluted with saline 103 % of control | dose: 200.0 mg/kg/injection, schedule: Q01DX001 (ip), vehicle: alkali diluted with saline 100 % of control | dose: 400.0 mg/kg/injection, schedule: Q01DX001 (ip), vehicle: alkali diluted with saline 98 % of control

O=c1[nH]cnc2c1ccn2C1OC(CO)C(O)C1O (stereo not given)
inactive: dose: 3.0 mg/kg/injection, schedule: Q01DX009 (ip), vehicle: saline with Tween-80 100 % of control | dose: 6.0 mg/kg/injection, schedule: Q01DX009 (ip), vehicle: saline with Tween-80 100 % of control | dose: 12.0 mg/kg/injection, schedule: Q01DX009 (ip), vehicle: saline with Tween-80 104 % of control

O=C(Nc1ccc(OCCCCCOc2ccccc2)cc1)C(F)(F)F
inactive: [3] 100 % of control | [4] 116 % of control | [5] 114 % of control

CCCCCCCCCCCCCCCCCCCCCCCCC(O)C(=O)NC(CO)C(O)C(O)CCCCCCCCCCCCCC (stereo not given)
inactive: dose: 1.56 mg/kg/injection, schedule: Q04DX003 (ip), vehicle: saline with Tween-80 91 % of control | dose: 3.13 mg/kg/injection, schedule: Q04DX003 (ip), vehicle: saline with Tween-80 100 % of control | dose: 6.25 mg/kg/injection, schedule: Q04DX003 (ip), vehicle: saline with Tween-80 95 % of control

Cc1cc(C)n(C2=NC3(c4ccc(Cl)cc4)NC(=O)NC3(c3ccc(Cl)cc3)N2)n1 (stereo not given)
inactive: dose: 50.0 mg/kg/injection, schedule: Q04DX002 (ip), vehicle: saline with Tween-80 96 % of control | [13] 97 % of control | [14] 93 % of control

CC(=O)Nc1ccc(S(=O)(=O)NC(CCC(N)=O)C(=O)O)cc1 (stereo not given)
inactive: [6] 95 % of control | [7] 100 % of control | [8] 92 % of control

C=C(C)C1(C)CC1c1ccncc1 (stereo not given)
inactive: dose: 25.0 mg/kg/injection, schedule: Q01DX005 (ip), vehicle: saline with Tween-80 102 % of control | dose: 50.0 mg/kg/injection, schedule: Q01DX005 (ip), vehicle: saline with Tween-80 103 % of control | dose: 100.0 mg/kg/injection, schedule: Q01DX005 (ip), vehicle: saline with Tween-80 94 % of control

CSC1CC(C)(O)Cc2cc3c(c(O)c21)C(=O)c1c(O)cc2c(c1C3=O)OC1OC2(C)C(O)C(N(C)C)C1O (stereo not given)
inactive: dose: 16.0 mg/kg/injection, schedule: Q01DX009 (ip), vehicle: other 100 % of control

COC(=O)C1=C(/C=C/C(C)=O)NC(C)=C(C(=O)OC(C)C)C1c1ccccc1Cl (stereo not given)
inactive: [9] 105 % of control | [10] 99 % of control and 108 % of control and 96 % of control | [11] 102 % of control and 104 % of control and 113 % of control | [12] 108 % of control and 116 % of control

O=S(=O)(Nc1ccccn1)c1ccc(N(CCCl)CCCl)cc1
inactive: dose: 100.0 mg/kg/injection, schedule: Q04DX003 (ip), vehicle: saline with Tween-80 95 % of control | dose: 200.0 mg/kg/injection, schedule: Q04DX003 (ip), vehicle: saline with Tween-80 95 % of control
